Measured values taken from patent publication US20040116336A1, “Peptide derivatives” (priority 2002, published 2004).
Non-standard residues stand in square brackets, D forms with d. Residues, ends and D or L forms follow the SMILES beside them. No end group written: not given here. Phe(4-Cl) = N[C@@H](Cc1ccc(Cl)cc1)C(=O)O; Lys(Me2) = CN(C)CCCC[C@H](N)C(=O)O; Cha = N[C@@H](CC1CCCCC1)C(=O)O; pGlu = O=C1CC[C@@H](C(=O)O)N1; Dap = NC[C@H](N)C(=O)O

Tests used:
APJ [1] = target: T1, APJ (Homo sapiens, UniProt P35414); assay: Inhibitory activity on forskolin-stimulated cAMP production in CHO-A10 clone 6 cells; type: cell-based; details: read-out: EC50
T1 construct: expressed in transfected cells; host or cells: CHO (CHO-A10; clone 6 for the cAMP assay)
T1 sequence (P35414 1-380): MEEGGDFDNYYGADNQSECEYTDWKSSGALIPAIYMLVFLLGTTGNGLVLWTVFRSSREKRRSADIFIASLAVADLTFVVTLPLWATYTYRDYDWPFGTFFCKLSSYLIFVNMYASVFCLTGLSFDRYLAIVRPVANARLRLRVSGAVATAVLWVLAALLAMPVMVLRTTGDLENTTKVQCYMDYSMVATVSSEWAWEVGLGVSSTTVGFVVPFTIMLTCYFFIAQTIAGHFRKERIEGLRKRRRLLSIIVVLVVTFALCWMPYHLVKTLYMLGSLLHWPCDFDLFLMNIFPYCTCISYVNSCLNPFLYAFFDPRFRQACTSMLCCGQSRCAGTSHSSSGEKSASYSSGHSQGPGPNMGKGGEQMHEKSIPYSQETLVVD
Description: Measurement of an Inhibitory Activity on Forskolin-Stimulated cAMP Production
Hanks' balanced salt solution (HBSS) containing 0.2 mM 3-isobutyl-1-methylxanthine (IBMX) and 0.05% bovine serum albumin was prepared as an assay buffer, and each well was washed twice with 500 μl assay buffer and pre-incubated at 37° C. for 30 minutes. Further, each well was washed once with 500 μl assay buffer, and a sample dissolved in the assay buffer containing 1 μM forskolin was added at a volume of 500 μl/well and incubated at 37° C. for 30 minutes. Wells incubated with the assay buffer not containing forskolin were prepared in the same manner in order to determine the basal level of cellular cAMP production, while wells incubated with the assay buffer containing forskolin were also prepared in order to determine the maximum level of cAMP production stimulated with forskolin. After incubation was finished, each well was washed once with 500 μl assay buffer, and 500 μl lysis buffer 1B attached to a cAMP EIA system from Amersham was added to each well, to extract cAMP. According to the protocol of the kit, 100 μl of each extract was used to determine the level of cAMP. For the inhibitory activity of the sample on cAMP production, the difference (inhibited cAMP production) between the maximum level and the level of cAMP in the sample-containing wells was determined, and the inhibitory activity was expressed as percentage relative to the increased level of cAMP production stimulated with forskolin (that is, the difference between the maximum level and basal level), and from this dose-reaction curve, the EC50 was determined.

APJ [2] = target: T1, APJ; assay: Receptor binding assay-2 (compound in Reference Example 2 used); details: compound in Reference Example 2 used as ligand; read-out: IC50
Description: This product was mixed with an equal volume of an assay buffer (50 mM Tris-HCl/pH 7.5, 5 mM EDTA, 0.5 mM PMSF, 20 μg/ml leupeptin, 0.1 μg/ml pepstatin A, 4 μg/ml E-64 (Peptide Research Laboratory, Co.), 0.1% bovine serum albumin) and stored at −30° C. before use.
CHO-A10 cells were cultured, recovered with PBS containing 5 mM EDTA from a culture vessel, and suspended in the above-mentioned assay buffer not containing bovine serum albumin. The cells were homogenized 3 times at 12,000 rpm for 15 seconds by a Polytron homogenizer (manufactured by Kinematica Inc.) and then centrifuged (1000×g, 4° C., 10 minutes), and the supernatant was recovered. The precipitates were subjected again to the same procedure as above, and the respective supernatants were combined and centrifuged at 100,000×g, 4° C. for 1 hour, to recover precipitates (membrane fraction). The membrane fraction was suspended again in a small amount of the buffer, homogenized with a Teflon homogenizer and stored at −80° C. before use.
Binding assay was carried out under the following conditions. […] Measurement of non-specific binding was carried out using a well containing 1 μM unlabeled compound in place of the test sample. After the incubation was finished, a cell harvester (Packard) adapted to 96 wells and a filter unit (GF/C, Packard) were used for separation thereby capturing the membrane fraction on the filter. After the filter was sufficiently dried, Microcinti 0 (Packard) was added thereto, and using Top Count (Packard), the amount of the labeled material captured together with the membrane fraction on the filter was measured.

| Compound | EC50 (APJ [1]) [nM] | IC50 (APJ [2]) [nM] |
| --- | --- | --- |
| CC(C)C[C@H](NC(=O)[C@H](CCCNC(=N)N)NC(=O)[C@@H]1CCCN1C(=O)[C@H](CCCNC(=N)N)NC(=O)[C@H](CCC(N)=O)NC(=O)[C@H](CCCNC(=N)N)NC(=O)[C@@H](N)CCCNC(=N)N)C(=O)N[C@@H](CO)C(=O)N[C@@H](Cc1c[nH]cn1)C(=O)N[C@@H](CCCCN)C(=O)NCC(=O)N1CCC[C@H]1C(=O)N[C@@H](CC[S+](C)[O-])C(=O)O (stereo partly drawn) [Compound in Ex. 20] | 0.48 | 0.62 |
| CC(C)C[C@H](NC(=O)[C@H](CCCNC(=N)N)NC(=O)[C@@H]1CCCN1C(=O)[C@H](CCCNC(=N)N)NC(=O)[C@H](CCC(N)=O)NC(=O)[C@H](CCCNC(=N)N)NC(=O)[C@@H](N)CCCNC(=N)N)C(=O)N[C@@H](CO)C(=O)N[C@@H](C)C(=O)N[C@@H](CCCNC(=N)N)C(=O)NCC(=O)N1CCC[C@H]1C(=O)O [Compound in Ex. 19] | 0.26 | 0.071 |
| CC(C)C[C@H](NC(=O)[C@H](CCCNC(=N)N)NC(=O)[C@@H]1CCCN1C(=O)[C@H](CCCNC(=N)N)NC(=O)[C@H](CCC(N)=O)NC(=O)[C@H](CCCNC(=N)N)NC(=O)[C@@H](N)CCCNC(=N)N)C(=O)N[C@@H](CO)C(=O)N[C@@H](C)C(=O)N[C@@H](CCCNC(=N)N)C(=O)NCC(=O)NCC(=O)N[C@@H](CC1CCCCC1)C(=O)O [Compound in Ex. 62] (H-RRQRPRLSARGG[Cha]-OH; N-terminus and C-terminus assumed) | 0.23 | 0.14 |
| CSCC[C@H](NC(=O)[C@@H]1CCCN1C(=O)CNC(=O)[C@H](CCCNC(=N)N)NC(=O)[C@H](C)NC(=O)[C@H](CO)NC(=O)[C@H](CC(C)C)NC(=O)[C@H](CCCCN(C)C)NC(=O)[C@@H]1CCCN1C(=O)[C@@H](N)CCCNC(=N)N)C(=O)N1CCC[C@H]1C(=O)N[C@@H](Cc1ccccc1)C(=O)O [Compound in Ex. 63] (H-RP[Lys(Me2)]LSARGPMPF-OH; N-terminus and C-terminus assumed) | 0.33 | 0.074 |
| CSCC[C@H](NC(=O)[C@@H]1CCCN1C(=O)CNC(=O)[C@H](CCCCN)NC(=O)[C@H](Cc1c[nH]cn1)NC(=O)[C@H](CO)NC(=O)[C@H](CC(C)C)NC(=O)[C@H](CCCNC(=N)N)NC(=O)[C@@H]1CCCN1C(=O)[C@@H](N)CCCNC(=N)N)C(=O)N1CCC[C@H]1C(=O)N[C@@H](CC1CCCCC1)C(=O)O [Compound in Ex. 49] | 0.71 | 3.5 |
| CSCC[C@H](NC(=O)[C@@H]1CCCN1C(=O)CNC(=O)[C@H](CCCCN)NC(=O)[C@H](Cc1c[nH]cn1)NC(=O)[C@H](CO)NC(=O)[C@H](CC(C)C)NC(=O)[C@H](CCCNC(=N)N)NC(=O)[C@@H]1CCCN1C(=O)[C@@H](N)CCCNC(=N)N)C(=O)N1CCC[C@H]1C(=O)N[C@@H](Cc1ccc2ccccc2c1)C(=O)O [Compound in Ex. 32] | 0.1 | 0.35 |
| CSCC[C@H](NC(=O)[C@@H]1CCCN1C(=O)CNC(=O)[C@H](CCCCN)NC(=O)[C@H](CC(C)C)NC(=O)[C@H](CO)NC(=O)[C@H](CC(C)C)NC(=O)[C@H](CCCNC(=N)N)NC(=O)[C@@H]1CCCN1C(=O)[C@H](CCCNC(=N)N)NC(=O)[C@@H]1CCC(=O)N1)C(=O)N1CCC[C@H]1C(=O)N[C@@H](Cc1ccccc1)C(=O)O [Compound in Ex. 38] | 0.16 | 0.59 |
| CSCC[C@H](NC(=O)[C@@H]1CCCN1C(=O)CNC(=O)[C@H](CCCNC(=N)N)NC(=O)[C@H](CCCNC(=N)N)NC(=O)[C@H](Cc1ccccc1)NC(=O)[C@H](CC(C)C)NC(=O)[C@H](CCCNC(=N)N)NC(=O)[C@@H]1CCCN1C(=O)[C@H](CCCNC(=N)N)NC(=O)[C@@H]1CCC(=O)N1)C(=O)N1CCC[C@H]1C(=O)N[C@@H](Cc1ccccc1)C(=O)O [Compound in Ex. 42] ([pGlu]RPRLFRRGPMPF-OH) | 0.15 | 0.81 |
| CSCC[C@H](NC(=O)[C@@H]1CCCN1C(=O)CNC(=O)[C@H](CCCCN)NC(=O)[C@H](C)NC(=O)[C@H](CO)NC(=O)[C@H](CC(C)C)NC(=O)[C@H](CCCNC(=N)N)NC(=O)[C@@H]1CCCN1C(=O)[C@H](CCCNC(=N)N)NC(=O)[C@@H]1CCC(=O)N1)C(=O)N1CCC[C@H]1C(=O)N[C@@H](Cc1ccccc1)C(=O)O [Compound in Ex. 29] | 0.22 | 0.21 |
| CSCC[C@H](NC(=O)[C@@H]1CCCN1C(=O)CNC(=O)[C@H](CCCCN(C)C)NC(=O)[C@H](C)NC(=O)[C@H](CO)NC(=O)[C@H](CC(C)C)NC(=O)[C@H](CCCNC(=N)N)NC(=O)[C@@H]1CCCN1C(=O)[C@@H](N)CCCNC(=N)N)C(=O)N1CCC[C@H]1C(=O)N[C@@H](Cc1ccccc1)C(=O)O [Compound in Ex. 64, Arg-Pro-Arg-Leu-Ser-Ala-Lys(Me)2-Gly-Pro-Met-Pro-Phe] (H-RPRLSA[Lys(Me2)]GPMPF-OH; N-terminus and C-terminus assumed) | 0.38 |  |
| CC(C)C[C@H](NC(=O)[C@H](C)NC(=O)[C@@H]1CCCN1C(=O)[C@@H](N)CCCNC(=N)N)C(=O)N[C@@H](CO)C(=O)N[C@@H](Cc1c[nH]cn1)C(=O)N[C@@H](CCCCN)C(=O)NCC(=O)N1CCC[C@H]1C(=O)N[C@@H](CC1CCCCC1)C(=O)N1CCC[C@H]1C(=O)N[C@@H](Cc1ccc(Cl)cc1)C(=O)O [Compound in Ex. 58] (H-RPALSHKGP[Cha]P[Phe(4-Cl)]-OH; N-terminus and C-terminus assumed) | 0.41 | 0.15 |
| CSCC[C@H](NC(=O)CNC(=O)CNC(=O)[C@H](CCCNC(=N)N)NC(=O)[C@H](C)NC(=O)[C@H](CO)NC(=O)[C@H](CC(C)C)NC(=O)[C@H](CCCNC(=N)N)NC(=O)[C@@H]1CCCN1C(=O)[C@@H](N)CCCNC(=N)N)C(=O)N1CCC[C@H]1C(=O)N[C@@H](Cc1ccc(Cl)cc1)C(=O)O [Compound in Ex. 54] (H-RPRLSARGGMP[Phe(4-Cl)]-OH; N-terminus and C-terminus assumed) | 0.19 | 0.29 |
| CC(C)C[C@H](NC(=O)[C@H](CCCNC(=N)N)NC(=O)[C@@H]1CCCN1C(=O)[C@@H](N)CCCNC(=N)N)C(=O)N[C@@H](CO)C(=O)N[C@@H](CN)C(=O)N[C@@H](CCCNC(=N)N)C(=O)NCC(=O)N1CCC[C@H]1C(=O)N[C@@H](CC1CCCCC1)C(=O)N1CCC[C@H]1C(=O)N[C@@H](Cc1ccc(Cl)cc1)C(=O)O [Compound in Ex. 65, Arg-Pro-Arg-Leu-Ser-Dap-Arg-Gly-Pro-Cha-Pro-Phe(Cl)] (H-RPRLS[Dap]RGP[Cha]P[Phe(4-Cl)]-OH) | 0.52 | 0.26 |
| CC(=O)NC[C@H](NC(=O)[C@H](CO)NC(=O)[C@H](CC(C)C)NC(=O)[C@H](CCCNC(=N)N)NC(=O)[C@@H]1CCCN1C(=O)[C@@H](N)CCCNC(=N)N)C(=O)N[C@@H](CCCNC(=N)N)C(=O)NCC(=O)N1CCC[C@H]1C(=O)N[C@@H](CC1CCCCC1)C(=O)N1CCC[C@H]1C(=O)N[C@@H](Cc1ccc(Cl)cc1)C(=O)O [Compound in Ex. 66, Arg-Pro-Arg-Leu-Ser-Dap(Ac)-Arg-Gly-Pro-Cha-Pro-Phe(Cl)] (H-RPRLS[Dap](Ac)RGP[Cha]P[Phe(4-Cl)]-OH) | 0.69 | 0.11 |
| CSCC[C@H](NC(=O)[C@@H]1CCCN1C(=O)CNC(=O)[C@H](CCCCN)NC(=O)[C@H](Cc1c[nH]cn1)NC(=O)[C@H](CO)NC(=O)[C@H](CC(C)C)NC(=O)[C@H](CCCNC(=N)N)NC(=O)[C@@H]1CCCN1C(=O)[C@@H](N)CCCNC(=N)N)C(=O)N[C@@H](Cc1ccc(Cl)cc1)C(=O)O [Compound in Ex. 28] (H-RPRLSHKGPM[Phe(4-Cl)]-OH; N-terminus and C-terminus assumed) | 0.16 | 0.17 |
| RPRLSARGPM [Compound in Ex. 27] |  | 0.11 |
